# From PubChem BioAssay (NCI)
# Several values for one entry are separate records, joined by “and”; a condition that tells them apart may be missing. Equal values may be shown once.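 In this assay, cells in 96-well plates receive the compound at five concentrations for 48 hours. Endpoints are linearly interpolated between the surrounding concentrations. GI50 is the concentration that inhibits growth by half. At the TGI there is no net growth.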
# Tests used:
# Test in all cases: DTP human tumour cell line panel, 48 h
# 786-0 renal = test system: 786-0 renal
# A498 renal = test system: A498 renal
# A549 NSCLC = test system: A549 NSCLC
# ACHN renal = test system: ACHN renal
# BT-549 breast = test system: BT-549 breast
# CAKI-1 renal = test system: CAKI-1 renal
# CCRF-CEM leukemia = test system: CCRF-CEM leukemia
# COLO 205 colon = test system: COLO 205 colon
# DU-145 prostate = test system: DU-145 prostate
# EKVX NSCLC = test system: EKVX NSCLC
# HCC-2998 colon = test system: HCC-2998 colon
# HCT-116 colon = test system: HCT-116 colon
# HCT-15 colon = test system: HCT-15 colon
# HL-60(TB) leukemia = test system: HL-60(TB) leukemia
# HOP-62 NSCLC = test system: HOP-62 NSCLC
# HOP-92 NSCLC = test system: HOP-92 NSCLC
# HS 578T breast = test system: HS 578T breast
# HT29 colon = test system: HT29 colon
# IGROV1 ovarian = test system: IGROV1 ovarian
# K-562 leukemia = test system: K-562 leukemia
# KM12 colon = test system: KM12 colon
# LOX IMVI melanoma = test system: LOX IMVI melanoma
# M14 melanoma = test system: M14 melanoma
# MALME-3M melanoma = test system: MALME-3M melanoma
# MCF7 breast = test system: MCF7 breast
# MDA-MB-231 breast = test system: MDA-MB-231 breast
# MDA-MB-435 = test system: MDA-MB-435
# MDA-N = test system: MDA-N
# MOLT-4 leukemia = test system: MOLT-4 leukemia
# NCI-H226 lung = test system: NCI-H226 lung
# NCI-H23 lung = test system: NCI-H23 lung
# NCI-H460 lung = test system: NCI-H460 lung
# NCI-H522 lung = test system: NCI-H522 lung
# NCI/ADR-RES ovarian = test system: NCI/ADR-RES ovarian
# OVCAR-3 ovarian = test system: OVCAR-3 ovarian
# OVCAR-4 ovarian = test system: OVCAR-4 ovarian
# OVCAR-5 ovarian = test system: OVCAR-5 ovarian
# OVCAR-8 ovarian = test system: OVCAR-8 ovarian
# PC-3 prostate = test system: PC-3 prostate
# RPMI-8226 leukemia = test system: RPMI-8226 leukemia
# RXF 393 renal = test system: RXF 393 renal
# SF-268 CNS = test system: SF-268 CNS
# SF-295 CNS = test system: SF-295 CNS
# SF-539 CNS = test system: SF-539 CNS
# SK-MEL-2 melanoma = test system: SK-MEL-2 melanoma
# SK-MEL-28 melanoma = test system: SK-MEL-28 melanoma
# SK-MEL-5 melanoma = test system: SK-MEL-5 melanoma
# SK-OV-3 ovarian = test system: SK-OV-3 ovarian
# SN12C renal = test system: SN12C renal
# SNB-19 CNS = test system: SNB-19 CNS
# SNB-75 CNS = test system: SNB-75 CNS
# SR leukemia = test system: SR leukemia
# SW-620 colon = test system: SW-620 colon
# T-47D breast = test system: T-47D breast
# TK-10 renal = test system: TK-10 renal
# U251 CNS = test system: U251 CNS
# UACC-257 melanoma = test system: UACC-257 melanoma
# UACC-62 melanoma = test system: UACC-62 melanoma
# UO-31 renal = test system: UO-31 renal
smiles,measurement,setting,value
C[C@H]1CC[C@@]2(NC1)O[C@H]1C[C@H]3[C@@H]4CC[C@H]5C[C@@H](O)CC[C@]5(C)[C@H]4CC[C@]3(C)[C@H]1[C@@H]2C,GI50,786-0 renal,9.23 µM
same,TGI,786-0 renal,18.7 µM and > 100 µM
same,GI50,A498 renal,13.8 µM
same,TGI,A498 renal,35.2 µM and > 100 µM
same,GI50,A549 NSCLC,19.6 µM
same,TGI,A549 NSCLC,50 µM and > 100 µM
same,GI50,ACHN renal,11.2 µM
same,TGI,ACHN renal,21.9 µM and > 100 µM
same,GI50,BT-549 breast,23.8 µM
same,TGI,BT-549 breast,50 µM and > 100 µM
same,GI50,CAKI-1 renal,12.9 µM
same,TGI,CAKI-1 renal,34.5 µM and > 100 µM
same,GI50,CCRF-CEM leukemia,18.3 µM
same,TGI,CCRF-CEM leukemia,50 µM and > 100 µM
same,GI50,COLO 205 colon,33.3 µM
same,TGI,COLO 205 colon,50 µM and > 100 µM
same,GI50,DU-145 prostate,30.3 µM
same,TGI,DU-145 prostate,50 µM and > 100 µM
same,TGI,EKVX NSCLC,> 100 µM
same,GI50,HCC-2998 colon,9.32 µM
same,TGI,HCC-2998 colon,22 µM and > 100 µM
same,GI50,HCT-116 colon,8.32 µM
same,TGI,HCT-116 colon,17.3 µM and > 100 µM
same,GI50,HCT-15 colon,20.9 µM
same,TGI,HCT-15 colon,50 µM and > 100 µM
same,GI50,HL-60(TB) leukemia,42.5 µM
same,TGI,HL-60(TB) leukemia,50 µM and > 100 µM
same,GI50,HOP-62 NSCLC,9.72 µM
same,TGI,HOP-62 NSCLC,19.4 µM and > 100 µM
same,TGI,HOP-92 NSCLC,> 100 µM
same,GI50,HS 578T breast,21.8 µM
same,TGI,HS 578T breast,50 µM and > 100 µM
same,GI50,HT29 colon,9.75 µM
same,TGI,HT29 colon,50 µM and > 100 µM
same,GI50,IGROV1 ovarian,12.3 µM
same,TGI,IGROV1 ovarian,24.5 µM and > 100 µM
same,GI50,K-562 leukemia,6.87 µM
same,TGI,K-562 leukemia,23 µM and > 100 µM
same,GI50,KM12 colon,19 µM
same,TGI,KM12 colon,50 µM and > 100 µM
same,GI50,LOX IMVI melanoma,14.4 µM
same,TGI,LOX IMVI melanoma,41.8 µM and > 100 µM
same,GI50,M14 melanoma,18.1 µM
same,TGI,M14 melanoma,50 µM and > 100 µM
same,GI50,MALME-3M melanoma,11.2 µM
same,TGI,MALME-3M melanoma,31.5 µM
same,GI50,MCF7 breast,12.9 µM
same,TGI,MCF7 breast,36.8 µM and > 100 µM
same,GI50,MDA-MB-231 breast,7.26 µM
same,TGI,MDA-MB-231 breast,15.9 µM and > 100 µM
same,GI50,MDA-MB-435,17.3 µM
same,TGI,MDA-MB-435,50 µM
same,TGI,MDA-N,> 100 µM
same,GI50,MOLT-4 leukemia,> 50 µM
same,TGI,MOLT-4 leukemia,> 100 µM
same,GI50,NCI-H226 lung,13.8 µM
same,TGI,NCI-H226 lung,35.8 µM and > 100 µM
same,GI50,NCI-H23 lung,8.92 µM
same,TGI,NCI-H23 lung,19.7 µM and > 100 µM
same,GI50,NCI-H460 lung,11.9 µM
same,TGI,NCI-H460 lung,34.8 µM and > 100 µM
same,GI50,NCI-H522 lung,13.6 µM
same,TGI,NCI-H522 lung,29.3 µM and > 100 µM
same,GI50,NCI/ADR-RES ovarian,8.71 µM
same,TGI,NCI/ADR-RES ovarian,22.4 µM and > 100 µM
same,GI50,OVCAR-3 ovarian,9.61 µM
same,TGI,OVCAR-3 ovarian,22.2 µM and > 100 µM
same,GI50,OVCAR-4 ovarian,17.3 µM
same,TGI,OVCAR-4 ovarian,50 µM and > 100 µM
same,GI50,OVCAR-5 ovarian,8.71 µM
same,TGI,OVCAR-5 ovarian,18.4 µM and > 100 µM
same,TGI,OVCAR-8 ovarian,50 µM and > 100 µM
same,GI50,PC-3 prostate,12.5 µM
same,TGI,PC-3 prostate,42 µM and > 100 µM
same,GI50,RPMI-8226 leukemia,7.82 µM
same,TGI,RPMI-8226 leukemia,31.4 µM and > 100 µM
same,GI50,RXF 393 renal,> 50 µM
same,TGI,RXF 393 renal,> 50 µM
same,GI50,SF-268 CNS,14 µM
same,TGI,SF-268 CNS,50 µM and > 100 µM
same,GI50,SF-295 CNS,14.8 µM
same,TGI,SF-295 CNS,42.9 µM and > 100 µM
same,GI50,SF-539 CNS,13.8 µM
same,TGI,SF-539 CNS,32.2 µM and > 100 µM
same,GI50,SK-MEL-2 melanoma,10.7 µM
same,TGI,SK-MEL-2 melanoma,23.9 µM and > 100 µM
same,GI50,SK-MEL-28 melanoma,17.9 µM
same,TGI,SK-MEL-28 melanoma,50 µM
same,GI50,SK-MEL-5 melanoma,11.7 µM
same,TGI,SK-MEL-5 melanoma,23.7 µM and > 100 µM
same,GI50,SK-OV-3 ovarian,22.7 µM
same,TGI,SK-OV-3 ovarian,50 µM and > 100 µM
same,GI50,SN12C renal,11.2 µM
same,TGI,SN12C renal,29.9 µM and > 100 µM
same,TGI,SNB-19 CNS,50 µM and > 100 µM
same,GI50,SNB-75 CNS,10.9 µM
same,TGI,SNB-75 CNS,24.7 µM and > 100 µM
same,TGI,SR leukemia,> 100 µM
same,GI50,SW-620 colon,24.9 µM
same,TGI,SW-620 colon,50 µM
same,GI50,T-47D breast,12.3 µM
same,TGI,T-47D breast,50 µM and > 100 µM
same,GI50,TK-10 renal,11.1 µM
same,TGI,TK-10 renal,25.3 µM and > 100 µM
same,GI50,U251 CNS,11.9 µM
same,TGI,U251 CNS,33.6 µM
same,GI50,UACC-257 melanoma,22 µM
same,TGI,UACC-257 melanoma,50 µM and > 100 µM
same,GI50,UACC-62 melanoma,9.42 µM
same,TGI,UACC-62 melanoma,17 µM and > 100 µM
same,GI50,UO-31 renal,14.2 µM
same,TGI,UO-31 renal,44.6 µM and > 100 µM
